From ChEMBL document CHEMBL1158395, “Discovery of novel acetanilide derivatives as potent and selective beta3-adrenergic receptor agonists” (Eur J Med Chem, 2009)

Assays:
[1] = target: Beta-3 adrenergic receptor (Homo sapiens, UniProt P13945); test: Agonist activity at human cloned adrenergic beta3 receptor expressed in CHO cells assessed as increase in cAMP production after 2 days by radioimmunoassay; format: functional, cell-based
[2] = target: Beta-2 adrenergic receptor (Homo sapiens, UniProt P07550)
Description: Agonist activity at human cloned adrenergic beta2 receptor expressed in CHO cells assessed as increase in cAMP production after 2 days by radioimmunoassay

[3] = target: Beta-1 adrenergic receptor (Homo sapiens, UniProt P08588)
Description: Agonist activity at human cloned adrenergic beta-1 receptor expressed in CHO cells assessed as increase in cAMP production after 2 days by radioimmunoassay

[4] = tested on: Mus musculus; test: Hypoglycemic activity in diabetic kk mouse assessed as reduction in plasma glucose levels at 30 mg/kg, po administered for 4 days measured after 15 to 18 hrs by glucose oxidase method; format: functional; set-up: scale not given: the % may be the effect or the level left

Chain of Beta-1 adrenergic receptor (P08588 whole entry): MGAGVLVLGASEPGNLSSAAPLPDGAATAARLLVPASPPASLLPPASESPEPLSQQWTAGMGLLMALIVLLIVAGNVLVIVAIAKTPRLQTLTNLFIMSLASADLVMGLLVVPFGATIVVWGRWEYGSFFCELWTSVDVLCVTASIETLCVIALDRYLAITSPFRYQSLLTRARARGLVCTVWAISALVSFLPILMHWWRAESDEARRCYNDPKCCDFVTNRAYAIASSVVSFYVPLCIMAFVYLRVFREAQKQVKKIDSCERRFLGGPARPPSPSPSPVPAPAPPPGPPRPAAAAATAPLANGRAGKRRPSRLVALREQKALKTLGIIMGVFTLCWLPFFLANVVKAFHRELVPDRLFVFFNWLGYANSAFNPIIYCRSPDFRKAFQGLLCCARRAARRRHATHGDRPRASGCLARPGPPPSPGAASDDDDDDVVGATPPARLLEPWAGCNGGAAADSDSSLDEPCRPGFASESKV
Chain of Beta-3 adrenergic receptor (P13945 whole entry): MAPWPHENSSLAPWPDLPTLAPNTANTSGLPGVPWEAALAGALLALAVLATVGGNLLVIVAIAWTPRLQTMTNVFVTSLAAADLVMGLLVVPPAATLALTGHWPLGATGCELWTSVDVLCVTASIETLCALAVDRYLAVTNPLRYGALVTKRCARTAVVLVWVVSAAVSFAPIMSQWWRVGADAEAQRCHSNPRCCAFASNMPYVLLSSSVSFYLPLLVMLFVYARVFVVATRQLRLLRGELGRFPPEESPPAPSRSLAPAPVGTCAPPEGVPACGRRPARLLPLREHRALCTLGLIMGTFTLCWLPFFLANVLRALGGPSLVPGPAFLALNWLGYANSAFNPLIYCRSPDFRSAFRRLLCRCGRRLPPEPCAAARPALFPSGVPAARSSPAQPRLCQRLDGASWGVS
Chain of Beta-2 adrenergic receptor (P07550 whole entry): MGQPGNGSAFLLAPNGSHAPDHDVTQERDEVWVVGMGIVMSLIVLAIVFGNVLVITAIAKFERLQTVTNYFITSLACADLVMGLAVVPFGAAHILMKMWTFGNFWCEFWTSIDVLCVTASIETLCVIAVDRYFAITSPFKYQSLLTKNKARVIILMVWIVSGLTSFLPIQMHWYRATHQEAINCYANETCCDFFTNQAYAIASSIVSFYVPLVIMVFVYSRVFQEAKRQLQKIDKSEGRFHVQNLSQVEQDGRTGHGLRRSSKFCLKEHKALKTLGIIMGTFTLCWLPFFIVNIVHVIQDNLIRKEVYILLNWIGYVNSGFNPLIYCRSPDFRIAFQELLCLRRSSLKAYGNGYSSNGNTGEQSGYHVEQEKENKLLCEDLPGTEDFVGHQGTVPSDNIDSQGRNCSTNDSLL

| SMILES | EC50 [1] [nM] | EC50 [2] [nM] | EC50 [3] [nM] | Activity [4] [%] |
| --- | --- | --- | --- | --- |
| O=C(Nc1ccc(CCNC[C@H](O)COc2ccc(O)cc2)cc1)C(c1ccccc1)c1ccccc1 | 120 | > 100000 | 180 |  |
| COc1ccc(CC(=O)Nc2ccc(CCNC[C@H](O)COc3ccc(O)cc3)cc2)cc1 | 1700 | > 100000 | 280 |  |
| O=C(Cc1ccc2ccccc2n1)Nc1ccc(CCNC[C@H](O)COc2ccc(O)cc2)cc1 | 650 | > 100000 | 1700 |  |
| O=C(Cc1ccncc1)Nc1ccc(CCNC[C@H](O)COc2ccc(O)cc2)cc1 | 520 | > 100000 | 260 |  |
| O=S(=O)(Nc1ccc(CCNC[C@H](O)COc2ccc(O)cc2)cc1)c1ccccc1 | 78 | > 100000 | 1600 |  |
| NC(C(=O)Nc1ccc(CCNC[C@H](O)COc2ccc(O)cc2)cc1)c1ccccc1 (some centres not stated) | 960 | > 100000 | 660 |  |
| O=C(Nc1ccc(CCNC[C@H](O)COc2ccc(O)cc2)cc1)C(O)c1ccccc1 (some centres not stated) | 960 | > 100000 | 590 |  |
| O=C(Cc1cccnc1)Nc1ccc(CCNC[C@H](O)COc2ccc(O)cc2)cc1 | 1500 | > 100000 | 910 |  |
| O=C(Cc1cc2ccccc2cn1)Nc1ccc(CCNC[C@H](O)COc2ccc(O)cc2)cc1 | 140 | > 100000 | 350 |  |
| O=C(Cc1ccsc1)Nc1ccc(CCNC[C@H](O)COc2ccc(O)cc2)cc1 | 550 | > 100000 | 490 |  |
| O=C(Cc1cccc(Cl)c1)Nc1ccc(CCNC[C@H](O)COc2ccc(O)cc2)cc1 | 890 | > 100000 | 83 |  |
| O=C(Cc1ccccn1)Nc1ccc(CCNC[C@H](O)COc2ccc(O)cc2)cc1 | 290 | > 100000 | 2700 | 32 |
| O=C(CC1C=Nc2ccccc21)Nc1ccc(CCNC[C@H](O)COc2ccc(O)cc2)cc1 (some centres not stated) | 490 | > 100000 | 550 |  |
| O=C(Cc1ccc(Cl)cc1)Nc1ccc(CCNC[C@H](O)COc2ccc(O)cc2)cc1 | 1200 | > 100000 | 190 |  |
| O=C(Cc1cnccn1)Nc1ccc(CCNC[C@H](O)COc2ccc(O)cc2)cc1 | 83 | > 100000 | 3100 | 13 |
| O=C(Cc1cccc2ccccc12)Nc1ccc(CCNC[C@H](O)COc2ccc(O)cc2)cc1 | 470 | > 100000 | 600 |  |
| O=C(Cc1ccc2ccccc2c1)Nc1ccc(CCNC[C@H](O)COc2ccc(O)cc2)cc1 | 240 | > 100000 | 150 |  |
| O=C(Cc1ccccc1Cl)Nc1ccc(CCNC[C@H](O)COc2ccc(O)cc2)cc1 | 740 | > 100000 | 720 |  |
| O=C(Cc1ncccn1)Nc1ccc(CCNC[C@H](O)COc2ccc(O)cc2)cc1 | 110 | > 100000 | > 100000 | 20 |
| COc1cccc(CC(=O)Nc2ccc(CCNC[C@H](O)COc3ccc(O)cc3)cc2)c1 | 560 | > 100000 | 710 |  |
| COc1ccccc1CC(=O)Nc1ccc(CCNC[C@H](O)COc2ccc(O)cc2)cc1 | 360 | > 100000 | 960 |  |
| O=C(Cc1cccs1)Nc1ccc(CCNC[C@H](O)COc2ccc(O)cc2)cc1 | 500 | > 100000 | 550 |  |
| O=C(Cc1ccccc1)Nc1ccc(CCNC[C@H](O)COc2ccc(O)cc2)cc1 | 1700 | > 100000 | 760 |  |
